The values below are quoted from earlier work in US6979468B1, “Oral composition and method for the treatment of inflammatory cutaneous disorders” (Sirius Laboratories, priority 2002, dated 2005).

Molecules are shown by their SMILES.

For the data set, the system named is acne vulgaris. The following applies: administered orally, 100–600 milligrams per day in divided doses taken 2 to 4 times per day.

For the compound `NC(=O)c1cccnc1` [nicotinamide], the “effect on acne lesions” value was “decrease inflammatory lesions such as papules, pustules, and cysts, but not comedones”.
